Data set [1] deals with T1, LeNCED1 (Solanum lycopersicum, UniProt O24023).
T1 construct: made in house; host or cells: E. coli Rosetta (DE3); crude cell-free extract
In words: In vitro NCED enzyme assay (recombinant LeNCED1 cell-free extract, HPLC, 9′-cis-neoxanthin substrate). It is filed as biochemical, tomato. The method, then: In vitro NCED enzyme assay—We over-expressed LeNCED1 in E. coli, as an N-terminal His6-fusion protein (supplemental methods). Cell-free extract containing recombinant LeNCED1 was prepared in 100 mM bis-tris buffer (pH 6.7). 15 μl extract was pre-activated by addition of iron(II) sulphate (20 mM, 1 μl) and ascorbic acid (20 mM, 1 μl) on ice for 2 min, prior to use. This aliquot of enzyme was then added to an assay (150 μl total volume) containing 100 mM bis-tris buffer (pH 6.7), 0.05% v/v Triton X-100, 1.0 mg/ml catalase, and 3 μg 9′-cis-neoxanthin. The 9′-cis-neoxanthin substrate was prepared as described in supplemental methods. The enzyme assay was incubated for 15 min in the dark at 20° C. Water (700 μl) was then added, and the products extracted with ethyl acetate (3×1 ml). The organic solvent was removed at reduced pressure, the residue was dissolved in methanol (200 μl), and then 100 μl was injected onto a Phenomenex C18 reverse phase HPLC column, and a gradient of 5-10% methanol in acetonitrile/0.05% triethylamine was applied at 0.5 ml/min over 20 min, detecting at 440 nm. NCED inhibition assays contained 1-100 μM inhibitor; inhibition was calculated from the product formation after 15 min, compared to a control assay with no inhibitor present.
For the production of cell-free extracts of LeCCD1a and LeNCED1, cultures were grown to an OD of 0.6 at 37° C., then isopropyl β-D-1-thiogalactopyranoside (IPTG) was added to 0.2 mM and the cultures grown overnight at 20° C. The cells (200 ml cultures) were harvested by centrifugation (5000 rpm, 10 min) and the pellet re-suspended in 4 ml PBS, 0.1% Triton-X 100. Lysozyme was added to a final concentration of 25 μg ml^−1 and the solution incubated at room temperature for 15 min before sonication (3×30 s at 18Ω) on ice. The lysate was then centrifuged (13000 rpm, 15 min, 4° C.) and the supernatant used for the assay.
Specificity of inhibition in vitro for tomato genes LeNCED1 and LeCCD1a—In order to screen the inhibitors against enzymes which cleave carotenoids at the 9,10 position, we used the recombinant tomato LeCCD1a protein (44), because this type of enzyme can be studied using an in vitro colourimetric assay with β-apo-8′-carotenal as substrate (37). To establish the specificity of the inhibitors, they were also tested against the tomato LeNCED1 recombinant protein which cleaves 9-cis carotenoids at the 11,12 position (45). For this enzyme, the cleavage reaction was monitored by C18 reverse phase HPLC, using 9′-cis-neoxanthin as substrate.

In data set [2] the test system is whole Arabidopsis plants. Kind of data set: Shoot branching in whole Arabidopsis plants grown in agar. It is filed as in vivo. As to conditions: applied to whole plants. As to the method: Branching phenotypes of Arabidopsis plants grown in agar media for 45 days supplemented with inhibitor D6. Images are shown: (a) Col-0 (WT) without inhibitor; (b) max3-9 mutant without inhibitor; (c) Col-0 with 100 μM D6. The numbers (d) of rosette branches were quantified. Error bars represent standard error of the mean, n=6 to 12.
Stimulation of shoot branching in whole Arabidopsis plants—Inhibitors were also applied to Arabidopsis whole plants grown under sterile conditions in agar. […] Inhibitor treated plants were intermediate (mean of approximately 2 branches) and so partially mimicked max3-9 (FIG. 6d).

Entries after “also recorded” stand apart in the source; their conditions may differ.

T1 sequence (O24023 17-605): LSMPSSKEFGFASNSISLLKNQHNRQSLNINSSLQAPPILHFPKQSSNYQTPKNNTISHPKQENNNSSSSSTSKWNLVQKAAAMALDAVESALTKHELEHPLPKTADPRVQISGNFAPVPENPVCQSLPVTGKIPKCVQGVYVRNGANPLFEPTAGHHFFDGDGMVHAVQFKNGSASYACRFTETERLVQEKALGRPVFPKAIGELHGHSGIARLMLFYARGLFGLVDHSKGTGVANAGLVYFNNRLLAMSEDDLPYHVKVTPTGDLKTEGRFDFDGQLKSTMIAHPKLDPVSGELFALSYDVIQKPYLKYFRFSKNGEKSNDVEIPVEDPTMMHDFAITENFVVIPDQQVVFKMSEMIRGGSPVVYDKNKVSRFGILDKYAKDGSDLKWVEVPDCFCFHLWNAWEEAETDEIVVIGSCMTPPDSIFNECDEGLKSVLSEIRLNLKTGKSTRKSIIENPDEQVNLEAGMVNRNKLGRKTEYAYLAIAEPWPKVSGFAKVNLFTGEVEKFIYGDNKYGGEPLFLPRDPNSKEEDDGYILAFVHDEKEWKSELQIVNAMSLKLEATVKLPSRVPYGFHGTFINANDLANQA

As to `COc1ccc(C(=O)N(O)Cc2ccccc2)cc1` [Compound F1, N-benzyl-4-methoxybenzoyl hydroxamic acid], in data set [1], the “inhibition of LeNCED1 in vitro (in words)” value is given as “little or no inhibition of LeNCED1; also recorded: no inhibition of LeNCED 1 was detected”. The “unintended effects on whole Arabidopsis plants” value in data set [2] is reported as “caused bleaching of leaves”.

Turning to `COc1ccc(C(=O)N(O)Cc2ccc(F)cc2)cc1` [Compound F2, N-(4-fluorobenzyl)-4-methoxybenzoyl hydroxamic acid], the “inhibition of LeNCED1 in vitro (in words)” value in data set [1] is given as “little or no inhibition of LeNCED1”. Also, the “unintended effects on whole Arabidopsis plants” value in data set [2] is reported as “caused bleaching of leaves”.

Regarding `COc1ccc(C(=O)N(O)Cc2ccccc2)cc1OC` [Compound F3, N-benzyl-3,4-dimethoxybenzoyl hydroxamic acid], in data set [1] (100 μM inhibitor, E. coli cell extract with recombinant CCD), the “LeNCED1 (11,12) Inhibition @ 100 μM (%)” value came to 2%.

The values above are taken from US9210928B2, “Plant development control composition” (Syngenta Crop Protection, LLC, priority 2008, dated 2015).
